From patent publication US11225642B2, “Method for producing renal progenitor cells” (KYOTO UNIVERSITY, priority 2013, dated 2022) come the findings set out here.

The test relates to OSR1-GFP & SIX2-tdTomato reporter human iPS cell line (4A6C3-10). In words: SIX2-positive cell induction method 4, OSR1+SIX2+ cell rate by flow cytometer. It is filed as cell-based. How it is done: 4A6C3-10 was cultured at 37° C. in a 2% to 5% CO2 atmosphere to become 70% to 80% confluent on 10-cm dishes containing a primate ES medium (ReproCELL) supplemented with 500 U/ml penicillin/streptomycin (Invitrogen) and 5 ng/ml recombinant human basic fibroblast growth factor (bFGF, Wako) with the use of ICR-mouse-embryo (fetus 12.5 days old)-derived mouse embryonic fibroblasts (MEF) or SNL feeder cells (McMahon, A. P. and Bradley, A. (1990) Cell 62; 1073-1085) (these cells being previously treated with 15.5 μg/ml mitomycin (Kyowa Hakko Kirin Co., Ltd.) for 2 to 3 hours and seeded at a density of 2×10^5 cells/6-cm dish) as feeder cells. The 10-cm plates containing the cells were rinsed with PBS and treated with a CTK solution (PBS containing 0.25% Trypsin (Invitrogen), 0.1% Collagenase IV (Invitrogen), 20% KnockOut SR (KSR, Invitrogen), and 1 mM CaCl2) at 37° C. for 4 minutes. The CTK solution was removed by rinsing with PBS. Then, the medium was exchanged with DMEM/F12+Glutamax (Invitrogen) containing 0.1 mM MEM NEAA (Invitrogen), 1000 U/ml penicillin/streptomycin, 0.55 mM 2-mercaptoethanol (Invitrogen), and 20% KSR. Subsequently, the cells were scraped using a cell scraper and seeded on 6-cm plates coated with 0.2% gelatin to remove feeder cells. One hour later, the cells were washed with DMEM/F12+Glutamax [stage-1 medium] containing 500 U/ml penicillin/streptomycin and 2% FBS (HyClone), transferred to ultra-low attachment dishes (Corning 3471) having a stage-1 medium containing 100 ng/ml recombinant human/mouse/rat Activin A (R&D Systems) and 1 μM CHIR99021, and cultured at 37° C. in a 5% CO2 atmosphere for 2 days.
In order to differentiate into the intermediate mesoderm, the cell mass (embryoid body (EB)) obtained at stage 1 was transferred to a 24-well plate coated with Synthemax II (Corning), the medium was exchanged with DMEM/F12+Glutamax containing 0.1 mM MEM NEAA, 500 U/ml penicillin/streptomycin, 0.55 mM 2-mercaptoethanol, 10% KSR, 100 ng/ml BMP7 (recombinant human BMP7, R&D Systems), and 1 μM CHIR99021, and the cells were cultured at 37° C. in a 5% CO2 atmosphere for 3 days.
After stage 2, the medium was exchanged with DMEM/F12+Glutamax containing 0.1 mM MEM NEAA, 500 U/ml penicillin/streptomycin, 0.55 mM 2-mercaptoethanol, 10% KSR, 1 μM TTNPB (Sigma T3757), and 5 ng/ml TGFβ1 (Peprotech), followed by culturing at 37° C. in a 5% CO2 atmosphere for 5 days. The medium was exchanged with a medium having the same conditions two days after the start of culture (i.e., day 8 from the start of stage 1 (day 1)).
After stage 3, the medium was exchanged with DMEM/F12+Glutamax containing 0.1 mM MEM NEAA, 500 U/ml penicillin/streptomycin, 0.55 mM 2-mercaptoethanol, 10% KSR, 5 ng/ml TGFβ1, and 0.5 μM DMH1 (Tocris), followed by culturing at 37° C. in a 5% CO2 atmosphere for 17 days (i.e., culturing for 28 days in total from the start of stage 1 (day 1); FIG. 3A). In this case, the medium was exchanged every 3 days with a medium having the same conditions. […] In addition, the OSR1^+SIX2^+ cell rate reached the maximum level on day 25 of culture and then it was confirmed to be maintained until day 28 of culture (FIG. 3D).
Induction of OSR1^+SIX2^+ cells from the 4A6C3-10 iPS cell line was examined using different combinations of TGFβ signaling activators and BMP inhibitors. Specifically, induction of OSR1^+SIX2^+ cells from 4A6C3-10 was examined under conditions 1) to 10) described below. […]

On to “TGFβ1: TGFβ signaling activator protein (Peprotech)”, for which the “induction of OSR1+SIX2+ cells” value (Example 8, comparison of combinations of TGFβ signaling activators and BMP inhibitors at stage 4 (FIG. 4)) was “effective”. Also, the “OSR1-positive and SIX2-positive (OSR1+SIX2+) cell rate” value (induction method 4, stage 4 medium with 5 ng/ml TGFβ1 and 0.5 μM DMH1, day 28 of culture) is 32.8%.
